Reference: patent US11332494B2, “Nanoemulsions and methods for cancer therapy” (Fernando Thome Kreutz, priority 2016, dated 2022)
Read-outs that look alike come from different tables or passages of the source.

Experiments:
Assay in all cases: Cell viability assay (Hoechst 33342/PI, ImageXpress)
Type in all cases: cell-based
[1] = system: LL 24; details: LL24, Table 4, time and unit inferred
Experimental: (§1) The purity of each oxysterol was determined to be 98% by GS/MS. For all experiments, a stock solution was prepared at a concentration of 1000 μM in absolute ethanol. The concentrations used in the experiments were in the range of those described to induce cell death on several cell lines. For the experiments, cells were plated at a density of 1.5×10^3 cells/[…] in triplicate in 96-well Black Flat Bottom Polystyrene Microplates (Corning, Mass.) and incubated in CO2 atmosphere. Several concentrations of each oxysterol (0 to 100 μM, 200 μL final volume) were added to the media, followed by incubation for 24 h. At the end of this experimental period, several parameters were determined in each of the three samples, as described hereafter. After 24 h cells were incubated with Hoechst 33342 (0.1 μg/mL) and 0.5 μl propidium iodide (PI) for 15 min. ImageXpress Micro high content screening system (Molecular Devices, Sunnyvale, Calif.) was used to determine the number of live and death cells. Nine sites per well and three wells per treatment were acquired. Cell Scoring MetaXpress software was used to analyze the number of cells and the viability. For IC50 calculations, survival data were evaluated by variable slope curve-fitting with GraphPad Prism.

[2] = system: HUV-EC; details: Homo sapiens, HUVEC, Table 4, time and unit inferred
Experimental: as §1

[3] = system: B16-F10 cell line; details: Mus musculus
Experimental: (§2) The purity of each oxysterol was determined to be 98% by GS/MS. For all experiments, a stock solution was prepared at a concentration of 1000 μM in absolute ethanol. The concentrations used in the experiments were in the range of those described to induce cell death on several cell lines. For the experiments, cells were plated at a density of 1.5×10^3 cells/[…] in triplicate in 96-well Black Flat Bottom Polystyrene Microplates (Corning, Mass.) and incubated in CO2 atmosphere. […] At the end of this experimental period, several parameters were determined in each of the three samples, as described hereafter.
(§3) After 24 h cells were incubated with Hoechst 33342 (0.1 μg/mL) and 0.5 μl propidium iodide (PI) for 15 min. ImageXpress Micro high content screening system (Molecular Devices, Sunnyvale, Calif.) was used to determine the number of live and death cells. Nine sites per well and three wells per treatment were acquired. Cell Scoring MetaXpress software was used to analyze the number of cells and the viability. For IC50 calculations, survival data were evaluated by variable slope curve-fitting with GraphPad Prism.

[4] = system: MDA-MB-321 cell line
Experimental: as §2, §3

[5] = system: A172; details: A 172; A172, human brain glioblastoma; Table 2
Experimental: (§4) The purity of each oxysterol was determined to be 98% by GS/MS. For all experiments, a stock solution was prepared at a concentration of 1000 μM in absolute ethanol. The concentrations used in the experiments were in the range of those described to induce cell death on several cell lines. For the experiments, cells were plated at a density of 1.5×10^3 cells/[…] in triplicate in 96-well Black Flat Bottom Polystyrene Microplates (Corning, Mass.) and incubated in CO2 atmosphere. Several concentrations of each oxysterol (0 to 100 μM, 200 μL final volume) were added to the media, followed by incubation for 24 h. At the end of this experimental period, several parameters were determined in each of the three samples, as described hereafter.
as §3

[6] = system: HepG-2; details: HepG2; HepG-2, human hepatocellular carcinoma; Table 2
Experimental: as §4, §3

[7] = system: Raji; details: human Burkitt's lymphoblast, Table 2
Experimental: as §4, §3

[8] = system: PC-3; details: PC-3, human prostate grade IV adenocarcinoma; Table 2
Experimental: as §4, §3

[9] = system: HeLa; details: human cervix adenocarcinoma, Table 2
Experimental: as §4, §3

[10] = system: Jurkat; details: human acute T cell leukemia, Table 2
Experimental: as §4, §3

[11] = system: MRC-5; details: MRC5; MRC-5, human lung normal; Table 2
Experimental: as §4, §3

[12] = system: U87-MG; details: U-87 MG, human glioblastoma astrocytoma, Table 2
Experimental: as §4, §3

[13] = system: T98G; details: human brain glioblastoma, Table 2
Experimental: as §4, §3

[14] = system: Molt-4; details: Molt-4, human acute lymphoblastic leukemia; Table 2
Experimental: as §4, §3

[15] = B16-F10, 24 h, Table 3, read-out: B16-F10 cell line IC50 (uM) 24 h
[16] = B16-F10, 48 h, Table 3, read-out: B16-F10 cell line IC50 (uM) 48 h
[17] = B16-F10, 72 h, Table 3, read-out: B16-F10 cell line IC50 (uM) 72 h
[18] = B16 F10, Table 4, time and unit inferred, read-out: IC50 B16 F10
[19] = MDA-MB-321, 24 h, Table 3, read-out: MDA-MB-321 cell line IC50 (uM) 24 h
[20] = MDA-MB-321, 48 h, Table 3, read-out: MDA-MB-321 cell line IC50 (uM) 48 h
[21] = MDA-MB-321, 72 h, Table 3, read-out: MDA-MB-321 cell line IC50 (uM) 72 h
[22] = MDA-MB-321, Table 4, time and unit inferred, read-out: IC50 MDA-MB-321

SMILES | IC50 [1] | IC50 [2] | IC50 [3, 15] | IC50 [3, 16] | IC50 [3, 17] | IC50 [3, 18] | IC50 [4, 19] | IC50 [4, 20] | IC50 [4, 21] | IC50 [4, 22] | IC50 [5] | IC50 [6] | IC50 [7] | IC50 [8] | IC50 [9] | IC50 [10] | IC50 [11] | IC50 [12] | IC50 [13] | IC50 [14]
CC(C)CCCC(C)C1CCC2C3CC(O)C4(O)CC(O)CC[C@]4(C)C3CC[C@]12C (stereo in doubt) [Ox-2, Cholestane-3α-5β-6α-triol] | 38.4 µM | 73.6 µM | 18.1 µM | 21.4 µM | 15.4 µM | 41.3 µM | 7.9 µM | 21.1 µM | 25.2 µM | 37.5 µM | 23.6 µM | 19 µM | 39 µM | 21 µM | 19.9 µM | 46.6 µM | 47.5 µM | 29.8 µM | 27.5 µM | 12.3 µM
CC(C)CCCC(C)C1CCC2C3CC(O)C4CC(O)CC[C@]4(C)C3CC[C@]12C (stereo in doubt) [Ox-4, (3α,5β,6α)-cholestane-3,6-diol] | 28.3 µM |  | 58.3 µM | 52.9 µM | 82.6 µM | 42.4 µM | 66.6 µM | 39.7 µM | 35.3 µM | 59 µM |  |  |  |  |  |  |  |  |  | 
CC(C)CCC[C@@H](C)[C@H]1CC[C@H]2[C@@H]3C(=O)C=C4C[C@@H](O)CC[C@]4(C)[C@H]3CC[C@]12C [Ox-1, 7-Ketocholesterol] | 49.5 µM | 39.4 µM | 19.9 µM | 21.7 µM | 29.6 µM | 35.6 µM | 54.4 µM | 50.4 µM | 48.1 µM | 37.6 µM | 15.6 µM | 42.5 µM | 63.3 µM | 19.2 µM | 33.2 µM | 55.8 µM | 78.6 µM | 55.6 µM |  | 38 µM
CC(C)CCC[C@H](C)C1CCC2C3C(=O)C=C4C=CCC[C@]4(C)C3CC[C@@]21C (stereo partly shown) [Ox-3, 3,5-cholestan-7-one] |  |  |  | 377 µM | 52.9 µM | 118 µM |  |  |  |  |  |  |  |  |  |  |  |  |  | 
CC(=O)O[C@H]1CC[C@@]2(C)C(=CC[C@H]3[C@@H]4CC[C@H]([C@H](C)CCCC(C)C)[C@@]4(C)CC[C@@H]32)C1 [Ox-5, Cholesteryl acetate] |  |  |  |  |  |  |  |  | 89.8 µM |  |  |  |  |  |  |  |  |  |  | 
CC(=O)O[C@H]1CC[C@@]2(C)C(=CC(=O)[C@H]3[C@@H]4CC[C@H]([C@H](C)CCCC(C)C)[C@@]4(C)CC[C@@H]32)C1 [Ox-6, 7-oxocholest-5-en-3-β-yl acetate] |  |  |  |  |  |  |  | 8560 µM | 829 µM |  |  |  |  |  |  |  |  |  |  | 
CC(C)CCC[C@@H](C)[C@H]1CC[C@H]2[C@@H]3C(=O)[C@@H]4O[C@@]45C[C@@H](O)CC[C@]5(C)[C@H]3CC[C@]12C [Ox-8, (3α,5β,6α)-3-OH-5,6-epoxycholestan-7-one] | 46.5 µM | 35.2 µM |  |  |  | 37 µM |  |  |  | 40 µM |  |  |  |  |  |  |  |  |  | 
